# Test results from patent US20160228434A1, “TREATMENT OF DISEASES CAUSED BY ABNORMAL LYMPHOCYTE FUNCTION WITH AN HDAC6 INHIBITOR” (priority 2013, published 2016).
# “Also recorded” adds a separate entry of the source.
# Assays:
# Type in all cases: in vivo
# [1] = tested on: thymic T cells; experiment: Thymic T cell development by flow cytometry in treated NZB/W mice; conditions: 16 weeks of treatment
# Protocol: (§1) NZB/W mice were injected intraperitoneally 5 days/week with the vehicle control (DMSO), ACY-738 treatment at 5 mg/kg (low-dose), or ACY-738 treatment at 20 mg/kg (high-dose) beginning at 22-weeks-of-age until euthanization at 38 weeks-of-age. ACY-738 was received from Acetylon Pharmaceuticals for use in all studies. Proteinuria and weight were measured every 2 weeks and blood was collected every four weeks for sera analysis. Proteinuria was measured by a standard semi-quantitative test using Siemens Uristix dipsticks (Siemens Healthcare, Deerfield, Ill., USA). Results were quantified according to the manufacturer's instructions and scored as follows: dipstick reading of 0 mg/dL=0, trace=1, 30-100 mg/dL=2, 100-300 mg/dL=3, 300-2000 mg/dL=4, and 2000+ mg/dL=5.
# (§2) A single-cell suspension was obtained from the thymuses and spleens of treated NZB/W mice at 38 weeks-of-age. Briefly, the thymus was removed from each NZB/W mouse and dissociated across a sterile wire mesh in a petri dish containing ice-cold RPMI 1640 medium (Thermo Scientific). RBCs were lysed using RBC lysis buffer and cells were pelleted and washed with PBS. Splenocytes were stained with APC-conjugated CD3, FITC-conjugated CD4, eFluor450 (eF450)-conjugated CD8a, PerCP-CY5.5-conjugated CD25, and PE-conjugated Foxp3. Thymocytes were stained with APC-CD3, FITC-CD4, and PE-CD8 anti-mouse mAbs (eBioscience, San Diego, Calif., USA). Fluorescence was measured using a FACScan flow cytometer and data was analyzed by FlowJo software.
# FIG. 4A depicts representative flow cytometry images of thymocytes gated on CD3 and labeled with CD4 and CD8.
# [2] = tested on: Treg cells (CD4+Foxp3+CD25+); experiment: Splenic Treg phenotype by flow cytometry in treated NZB/W mice; conditions: 38-week-old NZB/W mice, both doses (5 and 20 mg/kg), vs vehicle control
# Protocol: as §1
# as §2, with “Thymocytes were stained with APC-CD3, FITC-CD4, and PE-CD8 anti-mouse mAbs (eBioscience, San Diego, Calif., USA).” left out, “software. […]” for “software.”
# [3] = tested on: NZB/W mice; experiment: SLE-associated renal pathology (PAS-stained kidney sections, glomerular score) in treated NZB/W mice
# Protocol: as §1
# At the time of euthanization, the kidneys were removed and cut in half. One half of the kidney from each mouse was fixed in formalin, embedded in paraffin, sectioned, and stained with Periodic acid-Schiff (PAS). Kidney sections were scored (0-4) for glomerular proliferation, inflammation, crescent formation, necrosis, and by a pathologist, Dr. David Caudell, in a blinded manner.
# In order to assess renal disease, kidney sections were embedded in paraffin and stained by PAS. […] NZB/W mice treated with DMSO alone had thickened, irregular glomerular basement membranes, increased cellularity, fibrosis and crescent formation (see FIG. 11 A). […] Sections were assessed for glomerular proliferation, inflammation, number of nuclei per glomerulus, crescent formation, and fibrosis by a blinded pathologist, and a glomerular score (0-4) was assigned. NZB/W mice that were treated with the vehicle control alone received an average score of 4 compared to an average score of 2 from mice that received the high-dose of ACY-738 (FIG. 11 C).
# [4] = tested on: sera anti-dsDNA, IgG, IgG2a, IgG2b, IgM; experiment: Sera anti-dsDNA and Ig isotype levels by ELISA in treated NZB/W mice
# Protocol: as §1
# Sera were collected prior to initiation of treatment at 22 weeks-of-age and every 4 weeks until euthanization. The mice were anesthetized using isoflurane (Piramal Healthcare, Mumbai, Maharashtra, India) and bled from the retro-orbital sinus. Blood was allowed to clot for 2 hours and then centrifuged for 15 min at 10,000×g. The levels of sera antibodies to dsDNA were measured by ELISA. Sera samples were added to the plate at a 1:100 dilution, followed by a two-fold serial dilution. The plate was read at 380 nm on a Spectramax 340PC microplate spectrophotometer (Molecular Devices, Sunnyvale, Calif., USA). A final dilution of 1:800 was reported.
# [5] = tested on: glomerular IL-6, IL-10 and TGF-β mRNA; experiment: Glomerular IL-6, IL-10 and TGF-β mRNA by real-time RT-PCR in treated NZB/W mice; conditions: 38-week-old NZB/W mice
# Protocol: as §1
# RNA was isolated using the mirVana miRNA isolation kit according to the manufacturer's protocol (Applied Biosystems, Carlsbad, Calif., USA). The eluates were quantified on a spectrophotometer (Nanodrop, Thermo Scientific, Waltham, Mass., USA). An aliquot was taken and diluted to 1 ng/μL for real-time RT-PCR. The eluted RNA was stored at −80° C.
# IL-6, IL-10 and TGF-β mRNA expression were measured using TaqMan Gene Expression assays (Applied Biosystems, Carlsbad, Calif., USA). The […] using the endogenous control GAPDH, and then the ΔCT was determined by calculating the fold change in expression between the NZB/W mice treated with ACY-738 and the DMSO-treated controls. All samples were run in triplicate.
# The cortical tissue was isolated from one kidney of each mouse and pooled by treatment group. Briefly, cortical tissue was pressed through grading sieves and resuspended in 750 U/mL Worthington type I collagenase at 37° C. for 20 min. Glomerular cells were pelleted, resuspended in RNAlater (QIAGEN, Valencia, Calif., USA), and stored at −20° C. until RNA isolation.
# Following euthanization, glomeruli were isolated from the kidneys and RNA was extracted. Relative glomerular mRNA expression of IL-10, TGF-β, and IL-6 were determined using real-time RT-PCR.
# [6] = NZB/W mice, 5 and 20 mg/kg, dose-dependent
# [7] = 5 mg/kg, vs DMSO-treated controls
structure (smiles),measurement,setting,value
O=C(NO)c1cnc(NC2(c3ccccc3)CC2)nc1 [ACY-738],percentage of DN (CD3+CD4-CD8-) thymic T cells,"[1]; NZB/W mice at 38 weeks-of-age, 5 and 20 mg/kg",decreased the percentage of DN T cells in a dose-dependent manner; also recorded: reduced
same,percentage of CD3+CD4+CD8- single positive thymic T cells,[1]; NZB/W mice at 38 weeks-of-age,substantial decrease
same,percentage of CD3+CD4-CD8+ single positive thymic T cells,[1]; NZB/W mice at 38 weeks-of-age,substantial decrease
same,double positive (CD3+CD4+CD8+) thymic T cell numbers,"[1]; NZB/W mice, 5 and 20 mg/kg",increased in a dose-dependent manner
same,percentage of splenic Treg cells (CD4+Foxp3+CD25+),[2],significantly increased
same,kidney pathology,"[3]; 5 mg/kg, PAS-stained sections",did not significantly alter
same,SLE renal pathology,"[3]; 20 mg/kg, PAS-stained sections, lack of fibrosis and crescent bodies",significantly reduced
same,average glomerular score (0-4),"[3]; high dose (20 mg/kg), vehicle control average score 4",2
same,sera IgG2b level,[4]; NZB/W mice at 38 weeks-of-age,significantly increased
same,sera total IgM level,[4]; NZB/W mice at 38 weeks-of-age,slightly increased; also recorded: no effect
same,sera anti-dsDNA,"[4]; NZB/W mice, 5 mg/kg, vs vehicle control, p<0.05",significant decrease
same,sera anti-dsDNA,"[4]; NZB/W mice, 20 mg/kg (high dose), 38 weeks-of-age, 16 weeks of treatment, 20 mg/kg",prevent an increase in anti-dsDNA; also recorded: more pronounced
same,sera IgG2a level,[4]; [6],significantly decreased
same,sera total IgG level,[4]; [6],significantly decreased
same,reduction of glomerular IL-6 mRNA level,[5]; [7],more than 50%
same,reduction of glomerular IL-10 mRNA level,[5]; [7],more than 50%
same,glomerular IL-6 mRNA level,[5]; 20 mg/kg,non-detectable levels
same,glomerular IL-10 mRNA level,[5]; 20 mg/kg,non-detectable levels
same,glomerular TGF-β mRNA,"[5]; 5 and 20 mg/kg, dose-dependent",decreased
